Patent US10954232B2, “Pyrazole derivative as ALK5 inhibitor and uses thereof” (HANMI PHARMACEUTICAL CO., LTD., priority 2016, dated 2021)

Target: T1, ALK5 kinase (Homo sapiens, UniProt P36897)
T1 construct: GST; purchased Thermo Fisher Scientific Solutions
T1 sequence (P36897 34-503): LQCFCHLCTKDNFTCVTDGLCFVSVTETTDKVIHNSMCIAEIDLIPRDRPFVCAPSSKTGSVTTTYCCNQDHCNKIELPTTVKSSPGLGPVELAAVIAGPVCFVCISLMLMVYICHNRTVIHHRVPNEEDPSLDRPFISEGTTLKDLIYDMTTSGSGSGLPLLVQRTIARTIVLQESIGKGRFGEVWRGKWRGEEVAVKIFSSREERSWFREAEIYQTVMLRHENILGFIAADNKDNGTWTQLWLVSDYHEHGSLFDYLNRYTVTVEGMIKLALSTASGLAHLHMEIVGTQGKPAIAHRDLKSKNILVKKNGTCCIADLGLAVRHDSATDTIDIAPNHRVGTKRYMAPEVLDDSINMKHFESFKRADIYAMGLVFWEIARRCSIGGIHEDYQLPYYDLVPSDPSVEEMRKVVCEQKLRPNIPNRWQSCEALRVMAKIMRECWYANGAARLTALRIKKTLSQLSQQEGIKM
Experiment: Activity inhibition test on ALK5 enzyme (LanthaScreen Eu binding kinase assay)
Details: kinase tracer 178, 60 minutes at room temperature
Outline: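 TR-FRET tracer-displacement format with final 5 nM ALK5, 2 nM Eu-GST antibody and 10 nM kinase tracer 178. Compound dilution series ran 1 μM–0.0001 μM, incubated 60 min at room temperature with stirring. Fluorescence was read ([…]), and IC50 came from percent inhibition versus control.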

Compound | IC50 [nM]
Cc1cccc(-n2nc(C(=O)Nc3ccc(Br)cc3)cc2-c2ccc3ncsc3c2)n1 [Example 34, 5-(benzo[d]thiazol-6-yl)-N-(4-bromophenyl)-1-(6-methylpyridin-2-yl)-1H-pyrazole-3-carboxyamide] | 10 to 100
Cc1cccc(-n2nc(C(=O)Nc3ccc(S(C)(=O)=O)cc3)cc2-c2ccc3ncsc3c2)n1 [Example 41, 5-(benzo[d]thiazol-6-yl)-1-(6-methylpyridin-2-yl)-N-(4-(methylsulfonyl)phenyl)-1H-pyrazole-3-carboxyamide] | 5.2
Cc1cccc(-n2nc(C(=O)Nc3cccc(C#N)c3)cc2-c2ccc3ncsc3c2)n1 [Example 22] | 10 to 100
Cc1cccc(-n2nc(C(=O)Nc3cnn(S(C)(=O)=O)c3)cc2-c2ccc3ncsc3c2)n1 [Example 80, 5-(benzo[d]thiazol-6-yl)-1-(6-methylpyridin-2-yl)-N-(1-(methylsulfonyl)-1H-pyrazol-4-yl)-1H-pyrazole-3-carboxyamide] | 1.3
COc1ccc(NC(=O)c2cc(-c3ccc4ncsc4c3)n(-c3cccc(C)n3)n2)cc1F [Example 10, 5-(benzo[d]thiazol-6-yl)-N-(3-fluoro-4-methoxyphenyl)-1-(6-methylpyridin-2-yl)-1H-pyrazole-3-carboxyamide] | 10
Cc1cccc(-n2nc(C(=O)Nc3ccccc3Cl)cc2-c2ccc3ncsc3c2)n1 [Example 31, 5-(benzo[d]thiazol-6-yl)-N-(2-chlorophenyl)-1-(6-methylpyridin-2-yl)-1H-pyrazole-3-carboxyamide] | > 100
Cc1cccc(-n2nc(C(=O)Nc3cccc(NS(C)(=O)=O)c3)cc2-c2ccc3ncsc3c2)n1 [Example 53, 5-(benzo[d]thiazol-6-yl)-1-(6-methylpyridin-2-yl)-N-(3-(methylsulfonamido)phenyl)-1H-pyrazole-3-carboxyamide] | 2.4
Cc1cccc(-n2nc(C(=O)Nc3ccc(N)cc3)cc2-c2ccc3ncsc3c2)n1 [Example 86, N-(4-aminophenyl)-5-(benzo[d]thiazol-6-yl)-1-(6-methylpyridin-2-yl)-1H-pyrazole-3-carboxyamide] | 1.1
CCOc1ccc(NC(=O)c2cc(-c3ccc4ncsc4c3)n(-c3cccc(C)n3)n2)cc1 [Example 2, 5-(benzo[d]thiazol-6-yl)-N-(4-ethoxyphenyl)-1-(6-methylpyridin-2-yl)-1H-pyrazole-3-carboxyamide] | 4.7
Cc1cccc(-n2nc(C(=O)NCc3ccccc3)cc2-c2ccc3ncsc3c2)n1 [Example 76, 5-(benzo[d]thiazol-6-yl)-N-benzyl-1-(6-methylpyridin-2-yl)-1H-pyrazole-3-carboxyamide] | ~10
Cc1cccc(-n2nc(C(=O)Nc3ccc(S(N)(=O)=O)cc3)cc2-c2ccc3ncsc3c2)n1 [Example 46] | 1.3
CSc1cccc(NC(=O)c2cc(-c3ccc4ncsc4c3)n(-c3cccc(C)n3)n2)c1 [Example 35, 5-(benzo[d]thiazol-6-yl)-1-(6-methylpyridin-2-yl)-N-(3-(methylthio)phenyl)-1H-pyrazole-3-carboxyamide] | 10 to 100
Cc1cccc(-n2nc(C(=O)Nc3ccc(S(C)(=O)=O)cc3F)cc2-c2ccc3ncsc3c2)n1 [Example 44, 5-(benzo[d]thiazol-6-yl)-N-(2-fluoro-4-(methylsulfonyl)phenyl)-1-(6-methylpyridin-2-yl)-1H-pyrazole-3-carboxyamide] | 13
Cc1cccc(-n2nc(C(=O)Nc3cccc(S(N)(=O)=O)c3)cc2-c2ccc3ncsc3c2)n1 [Example 45, 5-(benzo[d]thiazol-6-yl)-1-(6-methylpyridin-2-yl)-N-(3-sulfamoylphenyl)-1H-pyrazole-3-carboxyamide] | 2.4
Cc1cccc(-n2nc(C(=O)Nc3cccc(F)c3)cc2-c2ccc3ncsc3c2)n1 [Example 28, 5-(benzo[d]thiazol-6-yl)-N-(3-fluorophenyl)-1-(6-methylpyridin-2-yl)-1H-pyrazole-3-carboxyamide] | 4.5

Other lines, results leading:

IC50 [nM] | Compound
10 to 100 | Cc1cccc(-n2nc(C(=O)Nc3ccc(F)cc3F)cc2-c2ccc3nccnc3c2)n1 [Example 187, N-(2,4-difluorophenyl)-1-(6-methylpyridin-2-yl)-5-(quinoxalin-6-yl)-1H-pyrazole-3-carboxyamide]
10 to 100 | Cc1cccc(-n2nc(C(=O)Nc3cccc(Cl)c3)cc2-c2ccc3ncnn3c2)n1 [Example 128, 5-([1,2,4]triazolo[1,5-α]pyridin-6-yl)-N-(3-chlorophenyl)-1-(6-methylpyridin-2-yl)-1H-pyrazole-3-carboxyamide]
10 to 100 | Cc1cccc(-n2nc(C(=O)Nc3ccc(Cl)cc3)cc2-c2ccc3nccnc3c2)n1 [Example 189, N-(4-chlorophenyl)-1-(6-methylpyridin-2-yl)-5-(quinoxalin-6-yl)-1H-pyrazole-3-carboxyamide]
2.8 | Cc1cccc(-n2nc(C(=O)Nc3cnn(C)c3)cc2-c2ccc(F)c(-c3cnn(CCO)c3)c2)n1 [Example 223, N-(1-methyl-1H-pyrazol-4-yl)-5-(4-fluoro-3-(1-(2-hydroxyethyl)-1H-pyrazol-4-yl)phenyl)-1-(6-methylpyridin-2-yl)-1H-pyrazole-3-carboxyamide]
4.7 | Cc1cccc(-n2nc(C(=O)Nc3ccc(S(C)(=O)=O)cc3)cc2-c2ccc(F)c(-c3cnn(CCO)c3)c2)n1 [Example 226, N-(4-(methylsulfonyl)phenyl)-5-(4-fluoro-3-(1-(2-hydroxyethyl)-1H-pyrazol-4-yl)phenyl)-1-(6-methylpyridin-2-yl)-1H-pyrazole-3-carboxyamide]
10 to 100 | CC(=O)Nc1ccc(NC(=O)c2cc(-c3ccc4ncnn4c3)n(-c3cccc(C)n3)n2)cc1 [Example 110, 5-([1,2,4]triazolo[1,5-α]pyridin-6-yl)-N-(4-acetamidophenyl)-1-(6-methylpyridin-2-yl)-1H-pyrazole-3-carboxyamide]
10 to 100 | Cc1cccc(-n2nc(C(=O)Nc3ccc(C#N)cc3)cc2-c2ccc3ncnn3c2)n1 [Example 121, 5-([1,2,4]triazolo[1,5-α]pyridin-6-yl)-N-(4-cyanophenyl)-1-(6-methylpyridin-2-yl)-1-H-pyrazole-3-carboxyamide]
10 to 100 | CC(=O)c1cccc(NC(=O)c2cc(-c3ccc4ncnn4c3)n(-c3cccc(C)n3)n2)c1 [Example 122, 5-([1,2,4]triazolo[1,5-α]pyridin-6-yl)-N-(3-acetylphenyl)-1-(6-methylpyridin-2-yl)-1H-pyrazole-3-carboxyamide]
> 100 | Cc1cccc(-n2nc(C(=O)Nc3ccccc3F)cc2-c2ccnc3ccccc23)n1 [Example 209, N-(2-fluorophenyl)-1-(6-methylpyridin-2-yl)-5-(quinolin-4-yl)-1H-pyrazole-3-carboxyamide]
< 10 | Cc1cccc(-n2nc(C(=O)Nc3ccc(S(C)(=O)=O)cc3)cc2-c2ccnc3ccccc23)n1 [Example 211, 1-(6-methylpyridin-2-yl)-N-(4-(methylsulfonyl)phenyl)-5-(quinolin-4-yl)-1H-pyrazole-3-carboxyamide]
10 to 100 | Cc1cccc(-n2nc(C(=O)Nc3ccc(S(=O)(=O)C4CC4)cc3)cc2-c2ccc3nonc3c2)n1 [Example 218, 5-(benzo[c][1,2,5]oxadiazol-5-yl)-N-(4-(cyclopropylsulfonyl)phenyl)-1-(6-methylpyridin-2-yl)-1H-pyrazole-3-carboxyamide]
> 100 | Cc1cccc(-n2nc(C(=O)Nc3ccc(CN(C)C)cc3)cc2-c2ccc3ncnn3c2)n1 [Example 111, 5-([1,2,4]triazolo[1,5-α]pyridin-6-yl)-N-(4-((dimethylamino)methyl)phenyl)-1-(6-methylpyridin-2-yl)-1H-pyrazole-3-carboxyamide]
10 to 100 | CC(=O)c1ccc(NC(=O)c2cc(-c3ccc4ncnn4c3)n(-c3cccc(C)n3)n2)cc1 [Example 123, 5-([1,2,4]triazolo[1,5-α]pyridin-6-yl)-N-(4-acetylphenyl)-1-(6-methylpyridin-2-yl)-1H-pyrazole-3-carboxyamide]
10 to 100 | Cc1cccc(-n2nc(C(=O)Nc3cccc(OC(F)(F)F)c3)cc2-c2ccc3ncnn3c2)n1 [Example 100, 5-([1,2,4]triazolo[1,5-α]pyridin-6-yl)-1-(6-methylpyridin-2-yl)-N-(3-(trifluoromethoxy)phenyl)-1H-pyrazole-3-carboxyamide]
10 to 100 | Cc1cccc(-n2nc(C(=O)Nc3ccc(Cl)cc3F)cc2-c2ccc3ncnn3c2)n1 [Example 139, 5-([1,2,4]triazolo[1,5-α]pyridin-6-yl)-N-(4-chloro-2-fluorophenyl)-1-(6-methylpyridin-2-yl)-1H-pyrazole-3-carboxyamide]
10 to 100 | CN(C)c1ccc(NC(=O)c2cc(-c3ccc4nccnc4c3)n(-c3cccc(Br)n3)n2)cc1 [Example 208, 1-(6-bromopyridin-2-yl)-N-(4-(dimethylamino)phenyl)-5-(quinoxalin-6-yl)-1H-pyrazole-3-carboxyamide]
10 to 100 | Cc1cccc(-n2nc(C(=O)Nc3cc(F)ccc3F)cc2-c2ccc3ncnn3c2)n1 [Example 135, 5-([1,2,4]triazolo[1,5-α]pyridin-6-yl)-N-(2,5-difluorophenyl)-1-(6-methylpyridin-2-yl)-1H-pyrazole-3-carboxyamide]
